{
  "source": "patent US9662322B2",
  "about": "(TEVA PHARMACEUTICAL INDUSTRIES, LTD., priority 2014, dated 2017)",
  "key": {"patients with RRMS [1]": {"system": "patients with RRMS", "conditions": "pooled ALLEGRO and BRAVO, all patients, 0.6 mg QD vs PBO; cited from earlier work"}, "[2]": {"system": "subjects with relapsing remitting multiple sclerosis (RRMS)", "experiment": "ALLEGRO Phase III trial: patient-reported fatigue and health status (MFIS, SF-36, EQ5D)", "assay_type": "in vivo, human", "conditions": "over 24 months", "description": "The following assessments were performed at specified time points: • 1. Vital signs were measured at each study visit. • 2. A physical examination is performed at months −1 (screening), 0 (baseline) 1, 3, 6, 12, 18 and 24 (termination/early discontinuation core study). In case of the 6 months extended study, additional examination was performed at month 30 (termination/early discontinuation of extended study). • 3. The following safety clinical laboratory tests were performed: • a. Complete blood count (CBC) with differential—at all scheduled visits. A reticulocyte count was added to the CBC at months 0 (baseline) and 24/30 (termination/early discontinuation). • b. […] Adverse Events (AEs) are monitored throughout the study. • 9. Concomitant medications are monitored throughout the study. • 10. […] MS functional Composite (MSFC) was assessed at months −1 (screening) (three practices for training purposes only), at month 0 (baseline), 6, 12, 18 and 24 (termination/early discontinuation). […] Subject-reported fatigue was assessed by the Modified Fatigue Impact Scale (MFIS) at months 0, 6, 12, 18, and 24 (termination/early discontinuation). […] The general health status was assessed by the EuroQoL (EQ5D) questionnaire at month 0 (baseline) and month 24 (termination/early discontinuation of the study). […]"}, "patients with RRMS [3]": {"system": "patients with RRMS", "experiment": "Post hoc analysis of pooled ALLEGRO and BRAVO trials by baseline EDSS subgroup", "assay_type": "in vivo, human", "conditions": "for Annualized Relapse Rate, Ratio: LAQ 0.6 mg vs PBO", "source_text": "The observed effect of LAQ on Confirmed Disability Progression (CDP) is disproportionately larger than would be predicted by the observed LAQ effect on relapse rate reduction.\nALELGRO and BRAVO trials described above enrolled ambulatory patients with RRMS, aged 18-55 years, with EDSS scores ≦5.5. Patients included in the study had • 1. ≧1 relapse in the previous year, or • 2. 2 relapses in the previous 2 years, or • 3. 1 relapse in the previous 1-2 years and ≧1 GdE lesion in the previous year.\nPatients were randomized 1:1 to LAQ 0.6 mg or PBO in the ALLEGRO study; in BRAVO patients were randomized 1:1:1 LAQ 0.6 or PBO or weekly interferon β 1a 30 μg.\nThis post hoc analysis include patients randomized to LAQ 0.6 mg or PBO only. Endpoints include ARR, time to CDP (defined as an increase from baseline in EDSS score of ≧1 point if baseline EDSS is ≦5, or of ≧0.5 point if baseline EDSS is >5), sustained for 3 or 6 months; and MSFC components including the Timed 25-Foot Walk (T25FW) test.\nLAQ vs. […] Adjusted mean z-score differences and 95% CIs were evaluated by ANCOVA.\nMRI endpoints included brain atrophy measured percent brain volume change (PBVC), and cumulative numbers of gadolinium-enhancing (GdE) and new T2 lesions at months 12 and 24."}, "[4]": {"system": "subjects with relapsing remitting multiple sclerosis (RRMS)", "experiment": "ALLEGRO Phase III trial: safety and tolerability", "assay_type": "in vivo, human", "description": "The following assessments were performed at specified time points: • 1. Vital signs were measured at each study visit. • 2. A physical examination is performed at months −1 (screening), 0 (baseline) 1, 3, 6, 12, 18 and 24 (termination/early discontinuation core study). In case of the 6 months extended study, additional examination was performed at month 30 (termination/early discontinuation of extended study). • 3. The following safety clinical laboratory tests were performed: • a. Complete blood count (CBC) with differential—at all scheduled visits. A reticulocyte count was added to the CBC at months 0 (baseline) and 24/30 (termination/early discontinuation). • b. Serum chemistry (including electrolytes, liver enzymes, direct and total bilirubin and pancreatic amylase and CPK), and urinalysis—at all scheduled visits. • c. A rapid urine β-hCG test was performed in women of child-bearing potential at baseline (month 0) and at each scheduled study visit thereafter (at site). • d. β-hCG in women of child-bearing potential was performed at all scheduled visits. • e. Starting after visit Month 3 a rapid urine β-hCG test was performed in women of child-bearing potential every 28 (±2) days. The subject was contacted by telephone within 72 hours after the test was scheduled to be performed and asked specific questions regarding the test. In case of suspected pregnancy (positive urine β-hCG test result), the caller made sure that the study drug has been discontinued and the subject was instructed to arrive at the site as soon as possible with all study drugs. • 4. Markers of inflammation (serum conventional C-reactive protein and fibrinogen)—at screening, baseline and all scheduled visits thereafter. • 5. During the first 3 months periodical phone calls were placed by the site personnel every two weeks. […] ECG was performed at months −1 (screening; additional recording, up to 30 minutes apart is performed if QTc is […] 450 msec), (baseline; three recordings, 15 minutes apart), 1, 2, 3, 6, 12, 18 and 24 (termination/early discontinuation). In case of the 6 months extended study, ECG is performed at month 30 (termination/early discontinuation of the extended study). • 7. Chest X-ray is performed at months −1 (screening), (if not performed within 7 months prior to the screening visit). • 8. Adverse Events (AEs) are monitored throughout the study. • 9. Concomitant medications are monitored throughout the study. • 10. Neurological evaluations, including Expanded Disability Status Scale (EDSS), 25 foot walk test/Ambulation Index (AI), Functional systems (FS) are performed at months −1 (screening), 0 (baseline) and every 3 months during the study and the extended study period. • 11. MS functional Composite (MSFC) was assessed at months −1 (screening) (three practices for training purposes only), at month 0 (baseline), 6, 12, 18 and 24 (termination/early discontinuation). In case of the 6 months extended study, the last MSFC was performed at months 30 (termination/early discontinuation of the extended study). • 12. Subject-reported fatigue was assessed by the Modified Fatigue Impact Scale (MFIS) at months 0, 6, 12, 18, and 24 (termination/early discontinuation). In case of the 6 months extended study, additional MFIS was performed at month 30 (termination/early discontinuation of the extended study). • 13. The general health status was assessed by the EuroQoL (EQ5D) questionnaire at month 0 (baseline) and month 24 (termination/early discontinuation of the study). In case of the 6 months extended study, the last EuroQoL (EQ5D) was performed at month 30 (termination/early discontinuation of the extended study) instead of month 24. • 14. The general health status was assessed by the Short-Form general health survey (SF-36) subject-reported questionnaire at month 0 (baseline) and every 6 months thereafter, until termination/early discontinuation. • 15. […]"}},
  "data": [
    {"compound": "CCN(C(=O)c1c(O)c2c(Cl)cccc2n(C)c1=O)c1ccccc1", "note": "[Laquinimod, laquinimod]", "values": [
      {"measurement": "Reduction in 6-month confirmed disability progression (CDP)", "setting": "patients with RRMS [1]", "value": 46, "unit": "%"},
      {"measurement": "SF-36 physical component summary (PCS) course", "setting": "[2]", "value": "remained stable"},
      {"measurement": "T25FW time increase after 24 months (adjusted mean)", "setting": "patients with RRMS [3]; baseline EDSS >3", "value": 1.9, "unit": "s"},
      {"measurement": "9HPT Change from Baseline to Month 24, Adj. Mean Diff.", "setting": "patients with RRMS [3]; baseline EDSS >3.0", "value": "−1.590"},
      {"measurement": "Brain Atrophy as defined by PBVC, adjusted mean difference", "setting": "patients with RRMS [3]; baseline EDSS >3.0", "value": 0.39},
      {"measurement": "Cumulative GdE T1 Lesions at Months 12 and 24, Rate Ratio", "setting": "patients with RRMS [3]; baseline EDSS >3.0", "value": 0.83},
      {"measurement": "Cumulative New/Enlarging T2 Lesions at Months 12 and 24, Rate Ratio", "setting": "patients with RRMS [3]; baseline EDSS >3.0", "value": 0.75},
      {"measurement": "Disability as Assessed by MSFC z-Score at Month 24, adjusted mean difference", "setting": "patients with RRMS [3]; baseline EDSS >3.0", "value": 0.25},
      {"measurement": "PASAT Change from Baseline to Month 24, Adj. Mean Diff.", "setting": "patients with RRMS [3]; baseline EDSS >3.0", "value": 0.586},
      {"measurement": "Time to 3-month CDP, Hazard Ratio", "setting": "patients with RRMS [3]; baseline EDSS >3.0", "value": 0.60},
      {"measurement": "Time to 6-month CDP, Hazard Ratio", "setting": "patients with RRMS [3]; baseline EDSS >3.0", "value": 0.47},
      {"measurement": "Reduction in 6-month CDP", "setting": "patients with RRMS [3]; baseline EDSS >3 (worsening MS), vs PBO", "value": 53, "unit": "%"},
      {"measurement": "Reduction of 3-month CDP", "setting": "patients with RRMS [3]; baseline EDSS >3, vs PBO", "value": 40, "unit": "%"},
      {"measurement": "Reduction of ARR", "setting": "patients with RRMS [3]; baseline EDSS >3, vs PBO", "value": 25, "unit": "%"},
      {"measurement": "Improvement / treatment effect size on the T25FW component", "setting": "patients with RRMS [3]; baseline EDSS >3, vs PBO, 24 months", "value": 59, "unit": "%"},
      {"measurement": "Annualized Relapse Rate, Ratio", "setting": "patients with RRMS [3]; baseline EDSS >3.0", "value": 0.75},
      {"measurement": "T25FW Change from Baseline to Month 24, Adj. Mean Diff.", "setting": "patients with RRMS [3]; baseline EDSS >3.0, listed as LAQ", "value": -2.79, "unit": "s"},
      {"measurement": "T25FW treatment effect among subjects who experienced CDP", "setting": "patients with RRMS [3]; baseline EDSS >3 with CDP, vs PBO", "value": 8.6, "unit": "s"},
      {"measurement": "Treatment differences in T25FW", "setting": "patients with RRMS [3]; baseline EDSS ≦3", "value": "No treatment differences"},
      {"measurement": "9HPT Change from Baseline to Month 24, Adj. Mean Diff.", "setting": "patients with RRMS [3]; baseline EDSS ≦3.0", "value": "−1.108"},
      {"measurement": "Brain Atrophy as defined by PBVC, adjusted mean difference", "setting": "patients with RRMS [3]; baseline EDSS ≦3.0", "value": 0.34},
      {"measurement": "Cumulative GdE T1 Lesions at Months 12 and 24, Rate Ratio", "setting": "patients with RRMS [3]; baseline EDSS ≦3.0", "value": 0.66},
      {"measurement": "Cumulative New/Enlarging T2 Lesions at Months 12 and 24, Rate Ratio", "setting": "patients with RRMS [3]; baseline EDSS ≦3.0", "value": 0.77},
      {"measurement": "Disability as Assessed by MSFC z-Score at Month 24, adjusted mean difference", "setting": "patients with RRMS [3]; baseline EDSS ≦3.0", "value": "−0.02"},
      {"measurement": "PASAT Change from Baseline to Month 24, Adj. Mean Diff.", "setting": "patients with RRMS [3]; baseline EDSS ≦3.0", "value": 0.302},
      {"measurement": "T25FW Change from Baseline to Month 24, Adj. Mean Diff.", "setting": "patients with RRMS [3]; baseline EDSS ≦3.0", "value": 0.055, "unit": "s"},
      {"measurement": "Time to 3-month CDP, Hazard Ratio", "setting": "patients with RRMS [3]; baseline EDSS ≦3.0", "value": 0.69},
      {"measurement": "Time to 6-month CDP, Hazard Ratio", "setting": "patients with RRMS [3]; baseline EDSS ≦3.0", "value": 0.60},
      {"measurement": "Annualized Relapse Rate, Ratio", "setting": "patients with RRMS [3]; baseline EDSS ≦3.0", "value": 0.80},
      {"measurement": "Deaths", "setting": "[4]; 0.6 mg daily, 24 months", "value": "No deaths"},
      {"measurement": "ALT elevations ≧5×ULN, patients", "setting": "[4]; human, in vivo, 24 months", "value": 8},
      {"measurement": "Abdominal pain, % of patients", "setting": "[4]; human, in vivo, 24 months", "value": 5.8, "unit": "%"},
      {"measurement": "Adverse events, number", "setting": "[4]; human, in vivo, 24 months", "value": 3309},
      {"measurement": "Appendicitis", "setting": "[4]; human, in vivo, 24 months", "value": 5, "unit": "cases"},
      {"measurement": "Back pain, % of patients", "setting": "[4]; human, in vivo, 24 months", "value": 16.4, "unit": "%"},
      {"measurement": "Cough, % of patients", "setting": "[4]; human, in vivo, 24 months", "value": 7.5, "unit": "%"},
      {"measurement": "Neoplasms", "setting": "[4]; human, in vivo, 24 months", "value": 8, "unit": "cases"},
      {"measurement": "Patients reporting 1 or more adverse events", "setting": "[4]; human, in vivo, 24 months", "value": 87, "unit": "%"},
      {"measurement": "Serious adverse events (SAEs) reported, total", "setting": "[4]; human, in vivo, 24 months", "value": 122},
      {"measurement": "Shift to ALT ≧3×ULN and <5×ULN, % of patients", "setting": "[4]; human, in vivo, 24 months", "value": 4.9, "unit": "%"},
      {"measurement": "Study discontinuation associated with these adverse events (abdominal pain, back pain, cough)", "setting": "[4]; human, in vivo, 24 months", "value": 3, "unit": "%"},
      {"measurement": "Treatment discontinuation due to ALT≧3 and <5×ULN, patients", "setting": "[4]; human, in vivo, 24 months", "value": 7},
      {"measurement": "Liver failure", "setting": "[4]; in vivo", "value": "no cases of liver failure"}
    ]}
  ]
}
